Several values for one entry are separate records, joined by “and”; a condition that tells them apart may be missing. Identical values can stand only once.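 Assay format: 96-well plates, 48-hour exposure. GI50: concentration for 50% inhibition of growth.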 Activity calls are given as the source filed them. Cut-off read from the data, not from the text of the source: active = GI50 up to about 1.1 µM and inactive = higher.
How the values were obtained:
Test in all cases: NCI-60 cell line screen, 48 h
SN12C = tested on: SN12C
IGROV-1 = tested on: IGROV-1
SF-539 = tested on: SF-539
COLO 205 = tested on: COLO 205
OVCAR-5 = tested on: OVCAR-5
HOP-92 = tested on: HOP-92
NCI-H226 = tested on: NCI-H226
786-0 = tested on: 786-0
UACC-62 = tested on: UACC-62
SR = tested on: SR
LOX IMVI = tested on: LOX IMVI
XF498 = tested on: XF498
SNB-75 = tested on: SNB-75
NCI-H23 = tested on: NCI-H23
MOLT-4 = tested on: MOLT-4
TK-10 = tested on: TK-10
SF-268 = tested on: SF-268
RPMI-8226 = tested on: RPMI-8226
SK-OV-3 = tested on: SK-OV-3
KM12 = tested on: KM12
HCT-116 = tested on: HCT-116
OVCAR-8 = tested on: OVCAR-8
OVCAR-3 = tested on: OVCAR-3
LXFL 529 = tested on: LXFL 529
Malme-3M = tested on: Malme-3M
HCT-15 = tested on: HCT-15
DMS-273 = tested on: DMS-273
SK-MEL-28 = tested on: SK-MEL-28
CAKI-1 = tested on: CAKI-1
UO-31 = tested on: UO-31
ACHN = tested on: ACHN
NCI-H522 = tested on: NCI-H522
M14 = tested on: M14
SF-295 = tested on: SF-295
SW-620 = tested on: SW-620
SK-MEL-2 = tested on: SK-MEL-2
HL-60 = tested on: HL-60
HT-29 = tested on: HT-29
K562 = tested on: K562
KM-20L2 = tested on: KM-20L2
OVCAR-4 = tested on: OVCAR-4
SNB-19 = tested on: SNB-19
A549 = tested on: A549
UACC-257 = tested on: UACC-257
NCI-H460 = tested on: NCI-H460
DLD-1 = tested on: DLD-1
HOP-62 = tested on: HOP-62
HCC 2998 = tested on: HCC 2998
DMS-114 = tested on: DMS-114
M19-MEL = tested on: M19-MEL
U-251 = tested on: U-251
CCRF-CEM = tested on: CCRF-CEM
SNB-78 = tested on: SNB-78
RXF 393 = tested on: RXF 393
SK-MEL-5 = tested on: SK-MEL-5
EKVX = tested on: EKVX
A498 = tested on: A498
MDA-N = tested on: MDA-N
MCF7 = tested on: MCF7
DU-145 = tested on: DU-145
Hs-578T = tested on: Hs-578T
MDA-MB-435 = tested on: MDA-MB-435
PC-3 = tested on: PC-3
MDA-MB-231 = tested on: MDA-MB-231
BT-549 = tested on: BT-549

With `O=C(CO)CC(=O)C(=O)Nc1cccc(C(F)(F)F)c1` the GI50 (SN12C) was > 100 µM (inactive), the GI50 (IGROV-1) was > 100 µM (inactive) and the GI50 (SF-539) was > 100 µM (inactive). The GI50 (COLO 205) was > 100 µM (inactive), the GI50 (OVCAR-5) was > 100 µM (inactive) and the GI50 (HOP-92) was > 100 µM (inactive). The GI50 (NCI-H226) was > 100 µM (inactive), the GI50 (786-0) was > 100 µM (inactive) and the GI50 (UACC-62) was > 100 µM (inactive). For the same compound, the GI50 (SR) was > 100 µM (inactive), the GI50 (LOX IMVI) was > 100 µM (inactive) and the GI50 (XF498) was > 100 µM (inactive). For the same compound, the GI50 (SNB-75) was > 100 µM (inactive), the GI50 (NCI-H23) was > 100 µM (inactive) and the GI50 (MOLT-4) was > 100 µM (inactive). The GI50 (TK-10) was > 100 µM (inactive), the GI50 (SF-268) was > 100 µM (inactive) and the GI50 (RPMI-8226) was > 100 µM (inactive). For the same compound, the GI50 (SK-OV-3) was > 100 µM (inactive), the GI50 (KM12) was > 100 µM (inactive) and the GI50 (HCT-116) was > 100 µM (inactive). For the same compound, the GI50 (OVCAR-8) was > 100 µM (inactive), the GI50 (OVCAR-3) was > 100 µM (inactive) and the GI50 (LXFL 529) was > 100 µM (inactive). The GI50 (Malme-3M) was > 100 µM (inactive), the GI50 (HCT-15) was > 100 µM and the GI50 (DMS-273) was > 100 µM (inactive). For the same compound, the GI50 (SK-MEL-28) was > 100 µM (inactive), the GI50 (CAKI-1) was > 100 µM (inactive) and the GI50 (UO-31) was > 100 µM (inactive). The GI50 (ACHN) was > 100 µM (inactive), the GI50 (NCI-H522) was > 100 µM (inactive) and the GI50 (M14) was > 100 µM (inactive). For the same compound, the GI50 (SF-295) was > 100 µM (inactive), the GI50 (SW-620) was > 100 µM (inactive) and the GI50 (SK-MEL-2) was > 100 µM (inactive). For the same compound, the GI50 (HL-60) was > 100 µM (inactive), the GI50 (HT-29) was > 100 µM (inactive) and the GI50 (K562) was > 100 µM (inactive). The GI50 (KM-20L2) was > 100 µM (inactive), the GI50 (OVCAR-4) was > 100 µM (inactive) and the GI50 (SNB-19) was > 100 µM (inactive). The GI50 (A549) was > 100 µM (inactive), the GI50 (UACC-257) was > 100 µM (inactive) and the GI50 (NCI-H460) was > 100 µM (inactive). For the same compound, the GI50 (DLD-1) was > 100 µM (inactive), the GI50 (HOP-62) was > 100 µM (inactive) and the GI50 (HCC 2998) was > 100 µM (inactive).

With `O=C1OC(O)c2cc3c(cc21)OCO3` (stereo unspecified) the GI50 (SN12C) was > 100 µM (inactive), the GI50 (IGROV-1) was > 100 µM (inactive) and the GI50 (SF-539) was > 100 µM (inactive). For the same compound, the GI50 (COLO 205) was > 100 µM (inactive), the GI50 (HOP-92) was > 100 µM (inactive) and the GI50 (786-0) was > 100 µM (inactive). The GI50 (DMS-114) was > 100 µM (inactive), the GI50 (M19-MEL) was > 100 µM (inactive) and the GI50 (UACC-62) was > 100 µM (inactive). For the same compound, the GI50 (LOX IMVI) was > 100 µM (inactive), the GI50 (XF498) was > 100 µM (inactive) and the GI50 (U-251) was > 100 µM (inactive). For the same compound, the GI50 (SNB-75) was > 100 µM (inactive), the GI50 (NCI-H23) was > 100 µM (inactive) and the GI50 (MOLT-4) was > 100 µM (inactive). The GI50 (TK-10) was > 100 µM (inactive), the GI50 (CCRF-CEM) was > 100 µM (inactive) and the GI50 (SF-268) was > 100 µM (inactive). The GI50 (RPMI-8226) was > 100 µM (inactive), the GI50 (SK-OV-3) was > 100 µM (inactive) and the GI50 (KM12) was > 100 µM (inactive). For the same compound, the GI50 (SNB-78) was > 100 µM (inactive), the GI50 (HCT-116) was > 100 µM (inactive) and the GI50 (RXF 393) was > 100 µM (inactive). The GI50 (OVCAR-8) was > 100 µM (inactive), the GI50 (OVCAR-3) was > 100 µM (inactive) and the GI50 (LXFL 529) was > 100 µM (inactive). For the same compound, the GI50 (Malme-3M) was > 100 µM (inactive), the GI50 (HCT-15) was > 100 µM and the GI50 (DMS-273) was > 100 µM (inactive). For the same compound, the GI50 (SK-MEL-28) was > 100 µM (inactive), the GI50 (CAKI-1) was > 100 µM (inactive) and the GI50 (UO-31) was > 100 µM (inactive). For the same compound, the GI50 (SK-MEL-5) was > 100 µM (inactive), the GI50 (NCI-H522) was > 100 µM (inactive) and the GI50 (M14) was > 100 µM (inactive). The GI50 (SF-295) was > 100 µM (inactive), the GI50 (SW-620) was > 100 µM (inactive) and the GI50 (SK-MEL-2) was > 100 µM (inactive). The GI50 (HL-60) was > 100 µM (inactive), the GI50 (HT-29) was > 100 µM (inactive) and the GI50 (K562) was > 100 µM (inactive). The GI50 (OVCAR-4) was > 100 µM (inactive), the GI50 (SNB-19) was > 100 µM (inactive) and the GI50 (EKVX) was > 100 µM (inactive). The GI50 (A549) was > 100 µM (inactive), the GI50 (UACC-257) was > 100 µM (inactive) and the GI50 (A498) was > 100 µM (inactive). For the same compound, the GI50 (NCI-H460) was > 100 µM (inactive), the GI50 (DLD-1) was > 100 µM (inactive) and the GI50 (HOP-62) was > 100 µM (inactive). For the same compound, the GI50 (HCC 2998) was > 100 µM (inactive).

For `Nc1nc(N)c2nc(CNc3ccc(C(=O)NC(CCCNC(=O)c4ccccc4C(=O)O)C(=O)O)cc3)cnc2n1` (stereo unspecified), the GI50 (MDA-N) was 0.01 µM (active), the GI50 (IGROV-1) was < 0.01 µM (active) and the GI50 (SF-539) was < 0.01 µM (active). The GI50 (MCF7) was 0.01 µM (active), the GI50 (786-0) was 0.01 µM (active) and the GI50 (SR) was 0.01 µM (active). For the same compound, the GI50 (LOX IMVI) was < 0.01 µM (active), the GI50 (XF498) was > 100 µM (inactive) and the GI50 (DU-145) was 0.01 µM (active). The GI50 (U-251) was < 10 nM (active) and 14.3 nM (active), the GI50 (NCI-H23) was < 0.01 µM (active) and the GI50 (MOLT-4) was < 19.4 nM (active) and < 10 nM (active). The GI50 (RPMI-8226) was < 0.01 µM (active), the GI50 (Hs-578T) was > 100 µM (inactive) and the GI50 (MDA-MB-435) was 0.00311 µM (active). For the same compound, the GI50 (HCT-116) was < 0.215 µM (active), the GI50 (OVCAR-8) was < 0.01 µM (active) and the GI50 (LXFL 529) was 0.000762 µM (active). The GI50 (HCT-15) was 0.01 µM, the GI50 (DMS-273) was 0.01 µM (active) and the GI50 (CAKI-1) was 0.01 µM (active). The GI50 (PC-3) was 0.01 µM (active), the GI50 (SK-MEL-5) was 10 nM (active) and < 18.4 nM (active) and the GI50 (MDA-MB-231) was > 100 µM (inactive). The GI50 (ACHN) was 0.01 µM (active), the GI50 (NCI-H522) was < 0.01 µM (active) and the GI50 (M14) was 0.01 µM (active). The GI50 (HL-60) was < 0.01 µM (active), the GI50 (HT-29) was < 0.01 µM (active) and the GI50 (KM-20L2) was 0.00875 µM (active). The GI50 (SNB-19) was < 20.2 nM (active) and 21.6 nM (active), the GI50 (A549) was < 0.01 µM (active) and the GI50 (NCI-H460) was < 0.01 µM (active). The GI50 (DLD-1) was < 0.01 µM (active), the GI50 (BT-549) was 6.18 µM (inactive) and the GI50 (HCC 2998) was < 0.01 µM (active).
